Common to all, as to assay type: biochemical
The target of test [1] is T1, p38 Mitogen-activated protein kinase (MAPK) (Homo sapiens, UniProt Q16539).
T1 construct: purchased Upstate
In words: p38 MAPK enzyme inhibition (histone H1, 32P-ATP). Particulars: p38 MAPK (recombinant p38a).
Description: The procedure of ERK-1 analysis was repeated to assess inhibitory capacities of the test compounds for the enzyme activity, except for using 2.5 μg of histone H1 (Upstate) and 5 nM of recombinant p38a (Upstate).

The next test deals with human GSK-3β (Homo sapiens, UniProt P49841). As to the kind of experiment: GSK-3β enzyme inhibition (32P-ATP, phospho-CREB peptide, filter paper). Particulars: 100 μM ATP, 30° C., 1 hour. On the procedure: GSK-3β was prepared by a gene recombination method.
First, primers corresponding to 5′-end and 3′-end of polynucleotide encoding human GSK-3β were designed and synthesized from nucleotide sequence of human GSK-3β (GenBank Reg. No. L33801). Then, the primers were amplified by PCR (polymerase chain reaction) in which a human DNA sequence was employed as a template and treated with restriction enzyme BamH1/XhoI. The resulting gene fragments were inserted into the corresponding identical restriction sites of pGex vector (GE Healthcare Life Science) to prepare an expression vector for transformation of E. coli BL21 (DE3) strain (Invitrogen). The transformed E. coli strain was inoculated to LB medium (1% Bacto tryptone, 0.5% yeast extract, 1% sodium chloride) and cultured until the optical density of the bacterial cells was about 0.5 at 600 nm and 37° C. Then, IPTG (isopropyl-β-D-thiogalactoside) was added thereto to a final concentration to 0.5 mM at 18° C. 16 hours after IPTG addition, the cells were subjected to centrifugation at 10,000×g for 10 mins and cell precipitates were collected. The cell precipitates were suspended in a buffer solution (30 mM tris-HCl (pH 7.5), 100 mM NaCl, 5% glycerol, 2 mM DTT) and the cells were smashed in an ice bath using a Sonic Dismembrator (Fisher, USA). The resulting solution was centrifuged at 16,000 rpm for 30 mins.
The supernatant obtained above was introduced to a pre-equilibrated GST column (Pharmacia, USA) and eluted by 5 mM glutachione. The effuent was subjected to SDS-PAGE and GSK-3β protein was collected. GST protein was cutt using thrombin. The GSK-3β protein thus obtained was diluted with a buffer solution (20 mM HEPES (pH 7.5), 5% glycerol, 2 mM DTT) until the concentration of NaCl reached 50 mM. The diluted solution was introduced to Mono S column (Pharmacia, USA) equilibrated with the above buffer solution and eluted with a aqueous NaCl while changing the concentration from 0 to 1 M NaCl, and GSK-3β protein was collected by a electrophoresis. The purified protein was used in the analysis for the activity for enzyme activity.
The enzyme reaction was conducted in a buffer solution (50 mM of tris-HCl (pH 7.5), 10 mM of MgCl2, 1 mM of EGTA, 1 mM of EDTA and 1 mM of DTT). 100 μM of phosho-CREB peptide (NEB, USA), 100 μM of ATP and 1 μCi of ^32P-ATP were added to the buffer solution as substrates. And then 100 nM of recombinant GSK-3β was added thereto and the mixture was reacted at 30° C. for 1 hour. The reaction was terminated by the addition of 5 μl of 5% phosphoric acid solution to 25 μl of the reaction mixture. The resulting solution was subjected to centrifugation at 15,000 for 10 mins and 20 μl of the supernatant thus obtained was dropped on whatman p81 filter paper. The filter paper was washed in 0.5% phosphoric acid solution for 10 mins. After repeating the washing 3 times, the filter paper was dried and its cpm (counter per mins) was assessed.
The test solution prepared above by dissolving a test compound in DMSO was added to the reaction solution in an amount of less than 5% based on the total reaction solution to analyze the capacity for enzyme inhibitory activity.

The next test concerns the target T2, ERK-1 (Homo sapiens, UniProt P27361).
T2 construct: purchased Upstate
As to the kind of experiment: ERK-1 enzyme inhibition (MBP, 32P-ATP). The settings on record: ERK-1, 100 μM ATP. On the procedure:
(§1) The test solution prepared above by dissolving a test compound in DMSO was added to the reaction solution in an amount of less than 5% based on the total reaction solution to analyze the capacity for enzyme inhibitory activity. The cpm value obtained when the test compounds was present relative to the cpm value in the absence of the test compound was represented by percentage, and IC50 (μM) was determined as the concentration of the test compound required to inhibit the enzyme activity by 50% relatively to the control solution.
(§2) The compounds prepared in the Examples were dissolved in dimethylsulfoxide (DMSO) at a concentration of 12.5 mM to prepare test compounds and enzyme reaction was conducted in a buffer solution containing 50 mM of tris-HCl (pH 7.5), 10 mM of MgCl2, 1 mM of EGTA, 1 mM of EDTA and 1 mM of DTT. 0.33 mg/ml of MBP (Upstate), 100 μM of ATP and 0.25 μCi of ^32P-ATP were added to the buffer solution as substrates. 5 nM of recombinant Erk-1 (Upstate) was added the resulting mixture, and the mixture was reacted at 30° C. for 1 hour. The reaction was terminated by adding 5 μl of 5% phosphoric acid solution to 25 μl of the reaction mixture. 15 μl of the resulting solution was dropped on whatman p81 filter paper, which was then washed in 0.5% phosphoric acid solution for 10 mins. After repeating the washing 3 times, the filter paper was dried and cpm thereof was measured by a liquid scintillation counter (Packard, USA). Inhibitory capacities of the test compounds for the enzyme activity were assessed according to the same method as in GSK-3β analysis, and IC50 value was calculated.

The next test concerns the target T3, KDR (Homo sapiens, UniProt P35968).
T3 construct: purchased Upstate
In words: KDR enzyme inhibition (Biotin-polyE4Y, alphascreen). The settings on record: 0.1 μM ATP. Here is the method:
as §1
The compounds prepared in the Examples were dissolved in dimethylsulfoxide (DMSO) at a concentration of 12.5 mM to prepare test solution, and enzyme reaction was conducted in a buffer solution containing 50 mM tris-HCl (pH 7.5), 5 mM MgCl2, 1 mM MnCl2, 0.01% tween-20 and 2 mM of DTT. 1 nM of Biotin-polyE4Y (Packard) and 0.1 μM of ATP were added to the buffer solution as substrates. 2 nM of recombinant KDR (Upstate) was added the resulting mixture and reaction was carried out at 30° C. for 1 hour. 10 μl of a diluted solution prepared by diluting alphascreen phosphotyrosine (T-Tyr-100, Packard) beads with a solution containing 6.25 mM of HEPES (pH 7.4), 250 mM of NaCl, 100 Mm EDTA, and 0.25% BSA was added to 15 μl of the KDR reaction solution. After a reaction at a room temperature for 1 hour, alphascreen signal was measured by a fusion a-FP (Packard). Inhibitory capacities of the test compounds for the enzyme activity were assessed according to the same method as in GSK-3β analysis, and IC50 value was calculated.
Background: In Alpha technology, singlet oxygen from a donor bead excites a nearby acceptor bead.

The target of another test is T4, JNK-1 (Homo sapiens, UniProt P45983).
T4 construct: purchased Upstate
As to the kind of experiment: JNK-1 enzyme inhibition (GST-ATF2, 32P-ATP).

The next test has as its target T5, CDK-2/cycline A (Homo sapiens, UniProt P24941).
T5 construct: purchased Upstate
As to the kind of experiment: CDK-2 enzyme inhibition (histone H1, 32P-ATP). On the procedure: as §2, with “0.33” for “The compounds prepared in the Examples were dissolved in dimethylsulfoxide (DMSO) at a concentration of 12.5 mM to prepare test compounds and enzyme reaction was conducted in a buffer solution containing 50 mM of tris-HCl (pH 7.5), 10 mM of MgCl2, 1 mM of EGTA, 1 mM of EDTA and 1 mM of DTT. 0.33”
The procedure of ERK-1 analysis was repeated to assess inhibitory capacities of the test compounds for the enzyme activity, except for using 2.5 μg of histone H1 (Upstate) and 100 nM of recombinant CDK-2/cycline A (Upstate).

Sequence of human GSK-3β (P49841 whole entry, the tested form may be a part): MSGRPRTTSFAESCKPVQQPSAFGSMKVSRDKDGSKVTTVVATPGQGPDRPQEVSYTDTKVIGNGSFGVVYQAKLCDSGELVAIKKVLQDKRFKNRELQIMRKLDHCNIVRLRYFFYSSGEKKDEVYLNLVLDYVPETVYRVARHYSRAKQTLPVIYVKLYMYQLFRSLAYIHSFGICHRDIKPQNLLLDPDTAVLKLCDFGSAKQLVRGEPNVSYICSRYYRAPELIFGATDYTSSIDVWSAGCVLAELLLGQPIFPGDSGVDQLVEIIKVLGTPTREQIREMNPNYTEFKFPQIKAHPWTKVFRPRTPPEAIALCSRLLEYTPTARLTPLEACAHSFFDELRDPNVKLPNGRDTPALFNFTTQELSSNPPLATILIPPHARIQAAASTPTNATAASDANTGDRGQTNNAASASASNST
T2 sequence (P27361 whole entry, species assumed): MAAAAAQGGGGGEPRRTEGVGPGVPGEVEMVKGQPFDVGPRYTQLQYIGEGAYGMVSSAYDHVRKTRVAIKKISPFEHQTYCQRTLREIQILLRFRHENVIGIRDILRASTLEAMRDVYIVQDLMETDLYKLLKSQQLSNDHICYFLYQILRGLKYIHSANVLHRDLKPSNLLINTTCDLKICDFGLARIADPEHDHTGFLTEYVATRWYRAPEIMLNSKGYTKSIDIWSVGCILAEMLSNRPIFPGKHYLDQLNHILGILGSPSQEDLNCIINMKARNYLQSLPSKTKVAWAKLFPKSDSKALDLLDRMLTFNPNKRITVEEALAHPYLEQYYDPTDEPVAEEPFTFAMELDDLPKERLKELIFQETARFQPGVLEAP
T1 sequence (Q16539 whole entry): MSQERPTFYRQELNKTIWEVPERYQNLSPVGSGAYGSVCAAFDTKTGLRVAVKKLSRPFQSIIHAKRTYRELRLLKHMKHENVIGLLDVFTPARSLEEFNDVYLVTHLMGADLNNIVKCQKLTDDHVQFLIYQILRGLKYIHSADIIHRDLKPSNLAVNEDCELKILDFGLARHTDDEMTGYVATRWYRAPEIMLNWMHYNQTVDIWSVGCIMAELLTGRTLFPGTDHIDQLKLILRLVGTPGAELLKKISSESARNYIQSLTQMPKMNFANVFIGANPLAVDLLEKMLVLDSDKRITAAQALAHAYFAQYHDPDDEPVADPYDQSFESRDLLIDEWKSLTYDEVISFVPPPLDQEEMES
T4 sequence (P45983 whole entry, species assumed): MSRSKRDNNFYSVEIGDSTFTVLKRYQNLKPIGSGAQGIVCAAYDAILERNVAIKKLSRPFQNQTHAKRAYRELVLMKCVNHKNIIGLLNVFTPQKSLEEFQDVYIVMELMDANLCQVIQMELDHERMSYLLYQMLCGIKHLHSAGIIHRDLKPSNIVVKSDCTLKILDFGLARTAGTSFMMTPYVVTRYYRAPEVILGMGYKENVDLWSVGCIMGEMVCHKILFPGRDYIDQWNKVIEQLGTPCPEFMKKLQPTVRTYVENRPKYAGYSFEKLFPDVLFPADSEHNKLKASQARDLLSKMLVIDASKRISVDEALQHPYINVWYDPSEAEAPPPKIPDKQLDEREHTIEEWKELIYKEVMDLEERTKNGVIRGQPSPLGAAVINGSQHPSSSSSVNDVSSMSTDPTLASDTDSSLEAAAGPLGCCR
T3 sequence (P35968 20-1356, species assumed): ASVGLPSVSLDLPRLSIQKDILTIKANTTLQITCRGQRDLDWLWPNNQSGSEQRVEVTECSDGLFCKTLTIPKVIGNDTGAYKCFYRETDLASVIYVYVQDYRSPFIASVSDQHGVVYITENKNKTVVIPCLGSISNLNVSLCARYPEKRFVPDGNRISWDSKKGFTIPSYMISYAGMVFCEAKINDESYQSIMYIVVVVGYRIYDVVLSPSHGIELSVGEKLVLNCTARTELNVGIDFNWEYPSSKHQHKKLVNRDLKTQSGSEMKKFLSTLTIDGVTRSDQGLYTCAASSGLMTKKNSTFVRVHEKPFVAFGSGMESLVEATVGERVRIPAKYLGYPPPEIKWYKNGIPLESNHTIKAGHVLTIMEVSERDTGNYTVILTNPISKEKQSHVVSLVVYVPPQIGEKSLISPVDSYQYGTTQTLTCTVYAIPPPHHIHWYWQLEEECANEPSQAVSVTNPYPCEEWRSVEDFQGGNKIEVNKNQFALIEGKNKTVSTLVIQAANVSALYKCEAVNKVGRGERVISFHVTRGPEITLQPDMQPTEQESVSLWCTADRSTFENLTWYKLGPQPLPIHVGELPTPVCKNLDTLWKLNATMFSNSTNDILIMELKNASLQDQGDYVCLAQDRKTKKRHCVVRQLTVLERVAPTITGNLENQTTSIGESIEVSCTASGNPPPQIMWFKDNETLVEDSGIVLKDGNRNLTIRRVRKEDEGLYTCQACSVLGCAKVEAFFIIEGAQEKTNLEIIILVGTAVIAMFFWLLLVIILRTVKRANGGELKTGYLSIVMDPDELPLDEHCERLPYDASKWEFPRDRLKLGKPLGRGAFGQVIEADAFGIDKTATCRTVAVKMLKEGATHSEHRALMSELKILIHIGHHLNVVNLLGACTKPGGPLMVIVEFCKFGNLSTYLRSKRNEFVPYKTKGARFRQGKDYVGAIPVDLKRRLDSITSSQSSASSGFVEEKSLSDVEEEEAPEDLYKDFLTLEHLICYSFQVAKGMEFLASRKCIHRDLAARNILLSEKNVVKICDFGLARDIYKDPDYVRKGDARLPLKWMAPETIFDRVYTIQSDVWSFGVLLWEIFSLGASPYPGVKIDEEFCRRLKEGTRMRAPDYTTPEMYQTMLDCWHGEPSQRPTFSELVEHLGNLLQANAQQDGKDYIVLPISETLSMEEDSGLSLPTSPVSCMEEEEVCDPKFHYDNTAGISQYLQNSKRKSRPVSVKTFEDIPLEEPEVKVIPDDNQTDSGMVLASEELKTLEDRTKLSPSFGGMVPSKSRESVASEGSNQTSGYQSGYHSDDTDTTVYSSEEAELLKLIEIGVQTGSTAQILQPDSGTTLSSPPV

As a reminder, the IC50 is the midpoint of a concentration-inhibition curve. Take `CCSc1ccncc1NC(=O)c1ccnc2[nH]c(-c3ccc(F)cc3)nc12` [Example 320, 2-(4-fluoro-phenyl)-3H-imidazo[4,5-b]pyridine-7-carboxylic acid(4-ethylsulfanyl-pyridin-3-yl)-amide]: the IC50 in test [1] was determined as 50 µM; on human GSK-3β it was 0.005 µM; against ERK-1 it was 25.5 µM; on KDR, 0.29 µM; at JNK-1 it was 14.5 µM; against CDK-2/cycline A, 0.17 µM.

For the origin of these results see patent publication US20090170847A1, “Imidazopyridine Derivatives Inhibiting Protein Kinase Activity, Method for the Preparation Thereof and Pharmaceutical Composition Containing Same” (priority 2006, published 2009).
